For assay [1], the system named is Toxoplasma strain RH. Kind of assay: Activity to inhibit multiplication of Toxoplasma (percentage of cells containing Toxoplasma, Toxo-GIF activity, cytotoxicity) in mouse peritoneal macrophages. Type of assay: cell-based, Toxoplasma gondii. The method, then:
(§1) In the present invention, the activity to inhibit multiplication of Toxoplasma is evaluated by two characteristics, i.e. "percentage of cells containing Toxoplasma" and "Toxoplasma growth inhibitory factor activity (hereinafter referred to as "Toxo-GIF activity")". These characteristics are measured according to the methods described in Nagasawa, H., et.al., Jpn. J. Vet. Sci., vol. 43, pages 307-319, 1981 and Sakurai, H., et.al., Jpn. J. Trop. Med. Hyg., vol. 10, pages 183-195, 1982.
An adult BALB/c female mouse is intraperitoneally injected with 1 ml of a sterilized saline containing 0.2% of glycogen, and, 5 days later, the peritoneal cavity of the mouse is washed with cold Hank's balanced salt solution (hereinafter referred to as "HBSS"), thereby taking up peritoneal exudate cells. These cells are washed by centrifugation at 250×G for 5 min twice, and suspended in Tc199 culture medium containing 10% of heat-inactivated calf serum (hereinafter referred to as "10%-HICS-Tc199 culture medium", see Igaku No Ayumi (Progress in Medicine), 62, No. 6, published on Aug. 5, 1967) in a concentration of 1×10^6 cells/mi. This cell suspension is portionwise poured, 1 ml each, into culture wells (Multidish-tray, FB-16-24-TC, manufactured and sold by Limblo Chemical Co., U.S.A.), which are covered by a circular cover glass having a diameter of 15 mm, and cultured in a 5% CO2 -incubator. In order to remove contaminating erythrocytes and lymphocytes, each of the culture wells is gently rinsed with HBSS three times at intervals of 2 hours, and then cultivated overnight in the CO2 -incubator to thereby form a mouse macrophage monolayer on the cover glass.
Each of the above-obtained monolayers is again rinsed with 10%-HICS-Tc199 culture medium, and inoculated with 1×10^5 tachyzoites of Toxoplasma strain RH per 1×10^6 mouse macrophages or canine monocytes so that the macrophages are infected thereby. Free Toxoplasma organisms having not penetrated into the cells are removed by washing with HBSS one hour after the inoculation.
(§2) A 10%-HICS-Tc199 culture medium containing a peptide sample is applied to the cover glass in an amount of 1 ml per 1×10^6 cells for both of the mouse macrophages and the canine monocytes, followed by cultivation for 48 hours, and then stained with May-Grunwald-Giemsa to thereby count the number of Toxoplasma organisms in the cells. Within a certain visual field on the cover glass, 100 cells are checked to count the number of cells which contain no Toxoplasma, the number of cells which contain one to five Toxoplasm organisms and the number of cells which contain 6 or more Toxoplasma organisms, and the count results are expressed by percentage. Similar checking and counting are performed within four other visual fields on the cover glass. From the data obtained on all of the five visual fields, an average value and a standard deviation are calculated to determine the percentage of cells containing Toxoplasma.
As a peptide sample, use is made of one obtained by dissolving a powdery peptide in 3 ml of 10%-HICS-Tc199 culture medium and then filtering and sterilizing the resultant solution through a membrane filter having a pore size of 0.46 μm. […]
The thus obtained crude Obioactin is fractionated by DEAE-5PW column (manufactured and sold by Tosoh Co., Japan) having an inside diameter of 21.5 mm and a length of 15 cm by NaCl concentration gradient ion exchange chromatography in which a concentration gradient of NaCl from 0M to 1M is made in 0.02M ammonium acetate as a basic solution. Each of the fractions is lyophilized, desalted by gel filtration through Sephadex G-15 (trade name of a gel manufactured and sold by Pharmacia Fine Chemicals Co., Sweden) and lyophilized again.

The next assay has as its system Toxoplasma. Description: Toxo-GIF activity of synthetic peptides used singly and in combination (host cells not stated). Type of assay: cell-based, Toxoplasma gondii. The conditions noted are these: total mg/ml: Obio-1 0.49, Obio-2 0.50, Obio-3 0.45, Obio-1+Obio-2 0.49, Obio-1+Obio-3 0.46, Obio-2+Obio-3 0.47. The method, then:
as §1, §2
(§3) The Toxo-GIF activity, which is another activity useful for evaluating the activity to inhibit multiplication of Toxoplasma, is defined as a proportion of decrease of Toxoplasma (Tp)-containing cells (in percentage) attributed to the addition of a peptide sample, expressed by percentage, and calculated according to the following formula: Toxo-GIF Activity (%)= [formula]

The subject of assay [2] is Methylcholanthrene induced tumor (MC tumor). Kind of assay: Effect of peptide injection on tumor multiplication in Methylcholanthrene induced tumor (MC tumor)-bearing mouse. Format: in vivo. The settings on record: 28 days after inoculation with MC tumor cells; 30 μg/mouse intramuscularly every week; control 432±10.5. As for the experimental part: (§4) Methylcholanthrene induced tumor cells excised from an MC induced tumor lump of a BALB/c mouse having, injected thereto, 0.5 mg of 20-Methylcholanthrene (manufactured and sold by Wako Pure Chemical Industries Ltd.), are suspended in RPMI-1640 culture medium, thereby obtaining a cell suspension of 2×10^7 cells/ml. 0.025 ml (5×10^5 MC tumor cells/mouse) of the cell suspension is intramuscularly injected under the skin on the back of a 6-week-old male mouse to inoculate the mouse with MC-tumor cells, thereby obtaining a tumor-bearing mouse.
(§5) Each of Obio-2 and Obio-3 is intramuscularly injected in an amount of 30 μg/mouse under the skin on the back of the mouse every week after the injection of the above MC tumor cell suspension to evaluate the inhibitory effect thereof on the multiplication of the tumor. Five tumor-bearing mice are employed for each test, and an average is taken.

Assay [3] relates to mononuclear cells in spleen. Description: Number of mononuclear cells in spleen and histopathology of MC tumor-bearing mouse. The conditions noted are these: for Bleeding colonies at the tumor tissue portions (histopathological findings): MC tumor-bearing mice, large bleeding colonies in uninjected mice; for Spleen mononuclear cell count in tumor-bearing mice relative to normal mice: spleen mononuclear cells, saline 0.10; for Spleen mononuclear cell count in tumor-bearing mice relative to normal mice / Number of mononuclear cells per mouse: MC tumor-bearing mouse; for Number of mononuclear cells per mouse: spleen, 30 μg once a week, normal mouse 13.0 × 10^7, saline 1.3 × 10^7. Type of assay: in vivo. The method, then:
as §4, §5
On the other hand, the number of mononuclear cells in the spleen of tumor-bearing mice injected with Obio-2 and Obio-3 experience only a slight decrease, and retains as large a number as 65 to 70% of that of normal mice. In the histopathological findings of these spleens, no significant change is observed in the spleen follicles of both the tumor-bearing mouse groups injected with Obio-2 and Obio-3 and the tumor-bearing mouse group injected with none of them. However, in the mouse groups injected with Obio-2 and Obio-3, small mononuclear cells (small lymphocytes) and large monocytes in the spleen red marrow conspicuously gather in the mallow, especially around the vessels, whereas the control mouse group not injected with the peptide has only small lymphocytes in the marrow.

Assay [4] relates to Toxoplasma strain RH. Description: Activity to inhibit multiplication of Toxoplasma in canine monocytes. Format: cell-based, Toxoplasma gondii. The conditions noted are these: Obio-2 0.05 mg/ml, canine monocyte cell. The method, then:
as §1
On the other hand, in the preparation of canine monocytes, 5 ml of blood is collected from cervical vein as a peripheral blood, and 0.05% of heparin is added. This blood is subjected to fractionation according to the Conray 400-Ficoll method (see Tsuji, H., Men-eki Jikken Sosaho (Procedure for Immunological Tests), 4th ed., Immunocells I-4, pages 443-446, published by Maeda Printing Co., Ltd., in 1979) to thereby obtain a mononuclear cell fraction. The obtained mononuclear cell fraction is subjected to centrifugation (800×G, 5 min., 4° C.) with HBSS and then with 10%-HICS-Tc199 culture medium, and suspended in 10%-HICS-Tc199 culture medium in a concentration of about 1×10^6 cells/mi. The resultant cell suspension is portionwise poured, 1 ml each, into the above-mentioned culture wells, which are covered by a circular cover glass having a diameter of 15 mm, and cultured in a 5% CO2 -incubator. The culturing is effected for 12 hours, and each of the culture wells is gently rinsed with HBSS three times, followed by cultivation overnight in the CO2 -incubator, to thereby form a canine monocyte monolayer on the cover glass.
Each of the above-obtained monolayers is again rinsed with 10%-HICS-Tc199 culture medium, and inoculated with 1×10^5 tachyzoites of Toxoplasma strain RH per 1×10^6 mouse macrophages or canine monocytes so that the macrophages are infected thereby. […]
A 10%-HICS-Tc199 culture medium containing a peptide sample is applied to the cover glass in an amount of 1 ml per 1×10^6 cells for both of the mouse macrophages and the canine monocytes, followed by cultivation for 48 hours, and then stained with May-Grunwald-Giemsa to thereby count the number of Toxoplasma organisms in the cells. […] From the data obtained on all of the five visual fields, an average value and a standard deviation are calculated to determine the percentage of cells containing Toxoplasma.
The Toxo-GIF activity, which is another activity useful for evaluating the activity to inhibit multiplication of Toxoplasma, is defined as a proportion of decrease of Toxoplasma (Tp)-containing cells (in percentage) attributed to the addition of a peptide sample, expressed by percentage, and calculated according to the following formula: Toxo-GIF Activity (%)= [formula] […]
(§6) The effect of the No. 5 peptide (Obio-2) is evaluated.

Assay [5] concerns Toxoplasma strain RH. Kind of assay: Activity to inhibit multiplication of Toxoplasma in human myocardial cells (Giardi Heart cell). Type of assay: cell-based, Toxoplasma gondii. The conditions noted are these: Obio-2 0.05 mg/ml. As for the experimental part:
as §1
(§7) The cells are suspended in MEM-M culture medium containing 10% of heat-inactivated calf serum at a concentration of 1×10^6 cells/mi. This cell suspension is portionwise poured, 1 ml each, into culture wells (multidish-tray, FB-16-24-TC, manufactured and sold by Limblo Chemical Co., U.S.A.), which are covered by a circular cover glass having a diameter of 15 mm, and cultured in a 5% CO2 -incubator overnight to thereby obtain a cell monolayer (a human myocardial cell monolayer and a human cerebral cell monolayer) on the cover glass.
(§8) The obtained cell monolayer is rinsed with MEM-M culture medium, and inoculated with 1×10^5 tachyzoites of Toxoplasma strain RH per 1×10^6 cells with respect to each of the human myocardial cells and the human brain cells. Free Toxoplasma organisms having not penetrated into the cells are removed by washing with HBSS one hour after the inoculation.
(§9) An MEM-M culture medium containing a peptide sample is applied to the cover glass in an amount of 1 ml per 1×10^6 cells, followed by cultivation for 48 hours, and then stained with May-Grunwald-Giemsa to thereby count the number of Toxoplasma organisms in the cells. The percentage of cells containing Toxoplasma organisms is determined in the same manner as described above for mouse macrophages.
as §3, §6

The test system of assay [6] is Toxoplasma strain RH. Kind of assay: Activity to inhibit multiplication of Toxoplasma in human cerebral cells (Flow 3000 cell). The settings on record: Obio-2 0.05 mg/ml. Type of assay: cell-based, Toxoplasma gondii. As for the experimental part: as §1, §7, §8, §9, §3, §6
Where [7] appears, read: synthetic peptide 0.7 mM, mouse peritoneal macrophages.
Where [8] appears, read: Obio-2 0.05 mg/ml, mouse macrophage.

Results on two substances are retold here after US5464819A, “Physiologically active peptide having immunoregulatory activities” (priority 1990, dated 1995).

Ends that are not written are not given here.

On to GAEEPVV [peptide No. 6], for which, in the assay with Toxoplasma strain RH [1] (setting [7]), the “Percentage of cells containing Toxoplasma (Tp): 0 Tp” value (from here on “Percentage … 0 Tp”) is 55.2 ± 6.2%, the “Percentage of cells containing Toxoplasma (Tp): 1-5 Tp” value (“Percentage … 1-5 Tp” below) came out at 36.2 ± 8.6%, the “Percentage of cells containing Toxoplasma (Tp): ≥6 Tp/cell” value (“Percentage … ≥6 Tp/cell” for short) is given as 8.6 ± 4.4% and the Toxo-GIF came out at 51.7%. In the assay with Toxoplasma, the “Percentage … 0 Tp” value is on record as 59.7 ± 15.8%, the “Percentage … 1-5 Tp” value is recorded as 29.5 ± 11.0%, the “Percentage … ≥6 Tp/cell” value amounted to 10.8 ± 7.1% and the Toxo-GIF is listed as 51.1%. Also, the Average tumor area in assay [2] is 219±40.1 mm^2. Moreover, in assay [3], the “Bleeding colonies at the tumor tissue portions (histopathological findings)” value is given as “no apparent bleeding colonies”, the “Spleen mononuclear cell count in tumor-bearing mice relative to normal mice” value was determined as 0.72 and the “Number of mononuclear cells per mouse” value was 9.1 × 10^7.

With AEEPVV [peptide No. 5], the “Concentration at which Toxo-GIF activity becomes appreciable / sufficient activity is detected” value with Toxoplasma strain RH [1] stood at 0.25 mg/mL. The “Percentage … 0 Tp” value in the assay with Toxoplasma strain RH [1] (setting [8]) was 88.4 ± 7.6%; in the assay with Toxoplasma strain RH [1] (setting [7]), 64.4 ± 9.3%; with Toxoplasma strain RH [4], 80.5 ± 6.4%; with Toxoplasma strain RH [5] it was 80.7 ± 6.1%; with Toxoplasma strain RH [6] it was 75.4 ± 7.4%; in the assay on Toxoplasma it was 69.6 ± 11.5%. Further, the “Percentage … 1-5 Tp” value is listed as 7.0 ± 4.5% in the assay on Toxoplasma strain RH [1] (setting [8]); 32.8 ± 8.8% in the assay with Toxoplasma strain RH [1] (setting [7]); 12.8 ± 5.4% in the assay on Toxoplasma strain RH [4]; 10.6 ± 3.4% with Toxoplasma strain RH [5]; 12.6 ± 6.8% with Toxoplasma strain RH [6]; 24.0 ± 9.1% in the assay with Toxoplasma. The “Percentage … ≥6 Tp/cell” value in the assay with Toxoplasma strain RH [1] (setting [8]) is listed as 4.6 ± 4.2%; in the assay on Toxoplasma strain RH [1] (setting [7]) it was 2.8 ± 1.1%; with Toxoplasma strain RH [4] it was 6.7 ± 3.3%; with Toxoplasma strain RH [5], 8.7 ± 2.1%; in the assay on Toxoplasma strain RH [6], 2.1 ± 1.9%; with Toxoplasma, 6.4 ± 2.7%. Further, the Toxo-GIF was 50.4% with Toxoplasma strain RH [1] (setting [8]); 61.6% in the assay on Toxoplasma strain RH [1] (setting [7]); 67.4% in the assay with Toxoplasma strain RH [4]; 57.7% in the assay with Toxoplasma strain RH [5]; 78.2% in the assay on Toxoplasma strain RH [6]; 63.1% in the assay with Toxoplasma. In addition, the Average tumor area in assay [2] amounted to 208±40.1 mm^2. In addition, the “Bleeding colonies at the tumor tissue portions (histopathological findings)” value in assay [3] is listed as “no apparent bleeding colonies”. For the same substance, in assay [3], the “Spleen mononuclear cell count in tumor-bearing mice relative to normal mice” value is 0.64. In addition, in assay [3], the “Number of mononuclear cells per mouse” value was 8.3 × 10^7.
